Laboratory results reported in ChEMBL document CHEMBL5380807, “Imidazo[1,2-a]Pyridine Derivatives as Novel Dual-Target Inhibitors of ABCB1 and ABCG2 for Reversing Multidrug Resistance” (J Med Chem, 2023).
Activity calls are given as the source filed them. The rule behind the calls is not given here.

Columns and labels:
K562/A02 [1] = assay: Cytotoxicity against human K562/A02 cells overexpressing ABCB1 assessed as decrease in cell survival rate at 5 uM incubated for 72 hrs by MTS assay; format: toxicity, cell-based; details: k562/a02, 72 h
K562 [2] = assay: Reversal of ABCB1 mediated adriamycin resistance in human K562 cells assessed as reduction in survival rate at 1 uM preincubated for 1 hrs followed by adriamycin addition and measured after 72 hrs by MTS assay; format: functional, cell-based; details: time 73.0 hrs
K562/A02 [3] = assay: Reversal of ABCB1 mediated adriamycin resistance in human K562/A02 cells overexpressing ABCB1 assessed as reduction in survival rate at 5 uM preincubated for 1 hrs followed by adriamycin addition and measured after 72 hrs by MTS assay; format: functional; details: time 73.0 hrs
K562 [4] = assay: Cytotoxicity against human K562 cells assessed as decrease in cell survival rate at 5 uM incubated for 72 hrs by MTS assay; format: toxicity, cell-based; details: k562, 72 h
K562/A02 [5] = assay: Reversal of ABCB1 mediated adriamycin resistance in human K562/A02 cells overexpressing ABCB1 assessed as reduction in survival rate at 1 uM preincubated for 1 hrs followed by adriamycin addition and measured after 72 hrs by MTS assay; format: functional; details: time 73.0 hrs
K562 [6] = assay: Reversal of ABCB1 mediated adriamycin resistance in human K562 cells assessed as reduction in survival rate at 5 uM preincubated for 1 hrs followed by adriamycin addition and measured after 72 hrs by MTS assay; format: functional, cell-based; details: time 73.0 hrs
[7] = Cytotoxicity against human K562/A02 cells overexpressing ABCB1 assessed as decrease in cell survival rate incubated for 72 hrs by MTS assay; format: toxicity, cell-based
[8] = Cytotoxicity against human K562 cells assessed as decrease in cell survival rate incubated for 72 hrs by MTS assay; format: toxicity, cell-based
K562 [9] = assay: Reversal of ABCB1 mediated adriamycin resistance in human K562 assessed as decrease in survival rate at 1.25 to 5 uM preincubated for 1 hrs followed by adriamycin addition and measured after 72 hrs by MTS assay; format: functional, cell-based; details: dose 1.25-5 µM, time 73.0 hrs
K562/A02 [10] = assay: Reversal of ABCB1 mediated adriamycin resistance in human K562/A02 overexpressing ABCB1 assessed as decrease in survival rate at 1.25 to 5 uM preincubated for 1 hrs followed by adriamycin addition and measured after 72 hrs by MTS assay; format: functional, cell-based; details: dose 1.25-5 µM, time 73.0 hrs

SMILES | IC50 at 72 h [7] [µM] | IC50 at 72 h [8] [µM] | further results
COc1cc2c(cc1OC)CN(CC(=O)Nc1ccc(-c3nc4ccccn4c3CN3CCN(c4ccc(OC(F)(F)F)cc4)CC3)cc1)CC2 | – | – | Activity (K562/A02 [1]): Non-Toxic; Activity (K562 [2]): inactive; Activity (K562/A02 [3]): Active; Activity (K562 [4]): Non-Toxic; Activity (K562/A02 [5]): Active; Activity (K562 [6]): inactive
C=CCc1ccc(OCC(=O)Nc2ccc(-c3nc4ccccn4c3CN3CCc4cc(OC)c(OC)cc4C3)cc2)c(OC)c1 | > 100 | > 100 | –
COc1cc2c(cc1OC)CN(Cc1c(-c3ccc(NC(=O)COc4ccc(Cl)cc4)cc3)nc3ccccn13)CC2 | 83 | > 100 | Activity (K562 [9]): inactive; Activity (K562/A02 [10]): Active
COc1cc2c(cc1OC)CN(CC(=O)Nc1ccc(-c3nc4ccccn4c3CN(C)C)cc1)CC2 | – | – | Activity (K562/A02 [1]): Non-Toxic; Activity (K562 [2]): inactive; Activity (K562/A02 [3]): Active; Activity (K562 [4]): Non-Toxic; Activity (K562/A02 [5]): Active; Activity (K562 [6]): inactive
O=C1CCCN1c1ccc(-c2nc3ccccn3c2CN2CCN(c3ccccc3)CC2)cc1 | > 100 | > 100 | –
O=C(CN1CCOCC1)Nc1ccc(-c2nc3ccccn3c2CN2CCN(c3ccccc3)CC2)cc1 | > 100 | > 100 | –
COc1cc2c(cc1OC)CN(Cc1c(-c3ccc(NC(=O)COc4ccccc4C)cc3)nc3ccccn13)CC2 | > 100 | > 100 | Activity (K562 [9]): inactive; Activity (K562/A02 [10]): Active
COc1cc2c(cc1OC)CN(CC(=O)Nc1ccc(-c3nc4ccccn4c3COCc3ccccc3Cl)cc1)CC2 | – | – | Activity (K562/A02 [1]): Non-Toxic; Activity (K562 [2]): inactive; Activity (K562/A02 [3]): Active; Activity (K562 [4]): Non-Toxic; Activity (K562/A02 [5]): Active; Activity (K562 [6]): inactive
COc1cc2c(cc1OC)CN(CC(=O)Nc1ccc(-c3nc4ccccn4c3CN3CCC(=O)CC3)cc1)CC2 | – | – | Activity (K562/A02 [1]): Non-Toxic; Activity (K562 [2]): inactive; Activity (K562/A02 [3]): Active; Activity (K562 [4]): Non-Toxic; Activity (K562/A02 [5]): Active; Activity (K562 [6]): inactive
COc1cc2c(cc1OC)CN(Cc1c(-c3ccc(NC(=O)CN(C)C)cc3)nc3ccccn13)CC2 | > 100 | > 100 | –
CCN(CC)CC(=O)Nc1ccc(-c2nc3ccccn3c2CN2CCN(c3ccccc3)CC2)cc1 | 40 | 24.3 | –
COc1cc2c(cc1OC)CN(Cc1c(-c3ccc(NC(=O)COc4cccc5cccnc45)cc3)nc3ccccn13)CC2 | > 100 | > 100 | –
COc1cc2c(cc1OC)CN(CC(=O)Nc1ccc(-c3nc4ccccn4c3CN3CCOCC3)cc1)CC2 | – | – | Activity (K562/A02 [1]): Non-Toxic; Activity (K562 [2]): Active; Activity (K562/A02 [3]): Active; Activity (K562 [4]): Non-Toxic; Activity (K562/A02 [5]): Active; Activity (K562 [6]): Active
COc1cc2c(cc1OC)CN(Cc1c(-c3ccc(NC(=O)COc4ccccc4)cc3)nc3ccccn13)CC2 | > 100 | > 100 | Activity (K562 [9]): inactive; Activity (K562/A02 [10]): Active
COc1cc2c(cc1OC)CN(CC(=O)Nc1ccc(-c3nc4ccccn4c3COCc3ccccc3)cc1)CC2 | – | – | Activity (K562/A02 [1]): Non-Toxic; Activity (K562 [2]): inactive; Activity (K562/A02 [3]): Active; Activity (K562 [4]): Non-Toxic; Activity (K562/A02 [5]): Active; Activity (K562 [6]): inactive
O=C(CCCN1CCN(c2ccccc2)CC1)Nc1ccc(-c2nc3ccccn3c2CN2CCN(c3ccccc3)CC2)cc1 | 7.07 | 3.72 | Activity (K562 [9]): Active; Activity (K562/A02 [10]): Active
O=C(/C=C/c1ccc(Cl)cc1)Nc1ccc(-c2nc3ccccn3c2CN2CCN(c3ccccc3)CC2)cc1 | > 100 | > 100 | –
COc1cc2c(cc1OC)CN(CC(=O)Nc1ccc(-c3nc4ccccn4c3CNCc3ccccc3)cc1)CC2 | – | – | Activity (K562/A02 [1]): 59.82%; Activity (K562 [2]): inactive; Activity (K562/A02 [3]): Active; Activity (K562 [4]): Non-Toxic; Activity (K562/A02 [5]): Active; Activity (K562 [6]): inactive
COc1cc2c(cc1OC)CN(Cc1c(-c3ccc(NC(=O)COc4ccc(C)cc4)cc3)nc3ccccn13)CC2 | > 100 | > 100 | Activity (K562 [9]): inactive; Activity (K562/A02 [10]): Active
COc1cc2c(cc1OC)CN(Cc1c(-c3ccc(NC(=O)CN4CCN(c5ccccc5)CC4)cc3)nc3ccccn13)CC2 | > 100 | > 100 | –
Cc1ccc(/C=C/C(=O)Nc2ccc(-c3nc4ccccn4c3CN3CCN(c4ccccc4)CC3)cc2)cc1 | > 100 | 32.8 | –
Cc1cccc(/C=C/C(=O)Nc2ccc(-c3nc4ccccn4c3CN3CCN(c4ccccc4)CC3)cc2)c1 | > 100 | > 100 | –
O=C(Cn1cnnc1)Nc1ccc(-c2nc3ccccn3c2CN2CCN(c3ccccc3)CC2)cc1 | > 100 | > 100 | –
O=C(/C=C/c1ccc(F)cc1)Nc1ccc(-c2nc3ccccn3c2CN2CCN(c3ccccc3)CC2)cc1 | > 100 | > 100 | Activity (K562 [9]): inactive; Activity (K562/A02 [10]): Active

SMILES | IC50 at 72 h [7] [µM] | IC50 at 72 h [8] [µM] | further results
COc1cc2c(cc1OC)CN(Cc1c(-c3ccc(NC(=O)CN4CCN(C)CC4)cc3)nc3ccccn13)CC2 | > 100 | 50.7 | –
O=C(CCn1cnnc1)Nc1ccc(-c2nc3ccccn3c2CN2CCN(c3ccccc3)CC2)cc1 | > 100 | > 100 | –
COc1cc2c(cc1OC)CN(Cc1c(-c3ccc(NC(=O)CN4CCN(c5ccc(OC(F)(F)F)cc5)CC4)cc3)nc3ccccn13)CC2 | 81.2 | 83.7 | –
COc1cc2c(cc1OC)CN(Cc1c(-c3ccc(NC(=O)Cn4cnnc4)cc3)nc3ccccn13)CC2 | > 100 | > 100 | –
COc1cc2c(cc1OC)CN(Cc1c(-c3ccc(NC(=O)/C=C/c4cc(OC)c(OC)c(OC)c4)cc3)nc3ccccn13)CC2 | > 100 | > 100 | –
O=C(/C=C/c1ccccc1)Nc1ccc(-c2nc3ccccn3c2CN2CCN(c3ccccc3)CC2)cc1 | > 100 | > 100 | –
COc1cc2c(cc1OC)CN(Cc1c(-c3ccc(NC(=O)CCN4CCN(c5ccccc5)CC4)cc3)nc3ccccn13)CC2 | 30.6 | 93.1 | –
CN1CCN(CC(=O)Nc2ccc(-c3nc4ccccn4c3CN3CCN(c4ccccc4)CC3)cc2)CC1 | 54.6 | 21.4 | –
CN(C)CC(=O)Nc1ccc(-c2nc3ccccn3c2CN2CCN(c3ccccc3)CC2)cc1 | 51.2 | 25.2 | –
COc1ccc(OCC(=O)Nc2ccc(-c3nc4ccccn4c3CN3CCc4cc(OC)c(OC)cc4C3)cc2)cc1 | > 100 | > 100 | –
O=C(/C=C/c1ccc([N+](=O)[O-])cc1)Nc1ccc(-c2nc3ccccn3c2CN2CCN(c3ccccc3)CC2)cc1 | 48.7 | 10.7 | –
COc1cc2c(cc1OC)CN(CCC(=O)Nc1ccc(-c3nc4ccccn4c3CN3CCN(c4ccccc4)CC3)cc1)CC2 | 13.6 | 3.31 | Activity (K562 [9]): Active; Activity (K562/A02 [10]): Active
O=C(CN1CCN(c2ccccc2)CC1)Nc1ccc(-c2nc3ccccn3c2CN2CCN(c3ccccc3)CC2)cc1 | > 100 | > 100 | –
CCN(CC)CC(=O)Nc1ccc(-c2nc3ccccn3c2CN2CCc3cc(OC)c(OC)cc3C2)cc1 | > 100 | > 100 | –
O=C1CCN1c1ccc(-c2nc3ccccn3c2CN2CCN(c3ccccc3)CC2)cc1 | 45.5 | 10.5 | –
COc1cc2c(cc1OC)CN(Cc1c(-c3ccc(NC(=O)CN4CCOCC4)cc3)nc3ccccn13)CC2 | > 100 | > 100 | –
COc1cc2c(cc1OC)CN(Cc1c(-c3ccc(NC(=O)COc4ccc(OC(F)(F)F)cc4)cc3)nc3ccccn13)CC2 | 40.9 | 29.9 | –
COc1cc(/C=C/C(=O)Nc2ccc(-c3nc4ccccn4c3CN3CCN(c4ccccc4)CC3)cc2)cc(OC)c1OC | > 100 | > 100 | Activity (K562 [9]): inactive; Activity (K562/A02 [10]): Active
O=C(CNCc1ccccc1)Nc1ccc(-c2nc3ccccn3c2CN2CCN(c3ccccc3)CC2)cc1 | 28.8 | 25.8 | Activity (K562 [9]): inactive; Activity (K562/A02 [10]): Active
COc1cc2c(cc1OC)CN(Cc1c(-c3ccc(NC(=O)COc4cccc([N+](=O)[O-])c4)cc3)nc3ccccn13)CC2 | > 100 | > 100 | –
COc1cccc(OCC(=O)Nc2ccc(-c3nc4ccccn4c3CN3CCc4cc(OC)c(OC)cc4C3)cc2)c1 | > 100 | > 100 | –
O=C(CCN1CCN(c2ccccc2)CC1)Nc1ccc(-c2nc3ccccn3c2CN2CCN(c3ccccc3)CC2)cc1 | 22.9 | 58.8 | Activity (K562 [9]): inactive; Activity (K562/A02 [10]): Active
COc1cc2c(cc1OC)CN(Cc1c(-c3ccc(NC(=O)COc4ccccc4Br)cc3)nc3ccccn13)CC2 | > 100 | > 100 | –
